Assay results taken from patent US5093337A, “Substituted derivatives of 20,21-dinoreburnamenine, their use as medicaments and the pharmaceutical compositions containing them” (Roussel Uclaf, priority 1987, dated 1992).

What was measured:
[1] = Asphyxic anoxemia (latency time for disappearance of the ECoG); assay type: in vivo, Sprague Dawley (Charles River) male rat; details: 10 mg/kg intravenous, 3 minutes before asphyxia; rat; read-out: % of variation of the latency time for disappearance of the ECoG after asphyxia
Method: The test is carried out using a Sprague Dawley (Charles River) male rat anaesthetized with ethyl ether, immobilized (tube curare 1 mg/kg I.V.) and artificially ventilated with air. The electrocorticogram (ECoG) and the arterial pressure are recorded. The rectal temperature is maintained at around 36° C. and the level of carbon dioxide in the blood is maintained between 35 and 40 torr. The products are administered at a dose of 10 mg/kg by intravenous route in a volume of 1 ml/kg 3 minutes before asphyxia obtained by stopping the artificial respiration. The latency time for the disappearance of the ECoG is measured.

[2] = tested on: adrenergic alpha2 receptors; experiment: Affinity for adrenergic alpha2 receptors (inhibition of specific 3H rauwolscine fixation, rat cortex); assay type: binding, rat (male; brain cortices); details: from CD (phentolamine) and CX (product) inhibiting 50% of specific fixation of 3H rauwolscine 0.15 nM, 25° C., 45 minutes
Method: 1) Affinity for adrenergic alpha2 receptors:
10 cortices removed from the brains of male rats weighing on average 150 g are homogenized in 90 ml of 0.32M sucrose. After centrifuging 1,000 g of the homogenized mixture for 10 minutes at 0° C., the supernatant is centrifuged at 30,000 g for 10 minutes at 0°/+4° C. The deposit is put in suspension in 240 ml of buffer TrisHCl 50 mM pH 7.7, and centrifuged at 30,000 g for 15 minutes at 0°/+4° C. The new deposit obtained is put in suspension in 480 ml of buffer NaKPO4 pH 7.4 50 mM.
2 ml of suspension is then incubated for 45 minutes at 25° C. in the presence of ^3 H rauwolscine at a 0.15 nM concentration:
ii) with increasing concentrations of the product under test or,
iii) in order to determine the non-specific fixation,
with non-radioactive phentolamine at a 10^-5 M concentration.
The incubated suspensions are filtered on Whatman GF/C and the filters are washed three times with 5 ml of buffer NaKPO4 pH 7.4 at 0° C. The radioactivity of the filters is measured by liquid scintillation.
The affinity of the product tested for adrenergic alpha2 receptors is given in relation to the phentolamine as a reference product.
CD=concentration of phentolamine inhibiting 50% of the specific fixation of ^3 H rauwolscine;
CX=concentration of the product under test inhibiting 50% of the specific fixation of ^3 H rauwolscine.
The relative affinity is given by the relation: [formula]

[3] = Test for spontaneous alternation after septal cholinergic injury; assay type: in vivo; details: range of doses from 1 to 10 mg/kg i.p., 30 minutes before each session; rat
From the text: 4) Test for spontaneous alternation after septal cholinergic injury
The behaviour of spontaneous alternation is an essential characteristic of the behavioural performance of the rat, which, put in a situation of choice between a familiar stimulus and a new stimulus, will choose the latter. Thus, in the case of a labyrinth Y, the animal will preferably choose an arm which has not yet been explored as opposed to an arm that he has just visited (spontaneous alternation). This faculty of discrimination between the "familiar" and the "new" implies the coming into play of a form of memory, the Short Term Memory or Work Memory. The performances of spontaneous alternation allow therefore an evaluation of the capacity of this type of memory.
The method used consists of creating a mnesic deficit in the rat, by lesion of the septo-hippocampic cholinergic system, and of researching whether the product under test is capable of reversing this deficit. In the present case, this deficit is evaluated in a spontaneous alternation behaviour; the lesioned animal has alternation performances of about 50%, because it carries out its choices by chance.
Each experiment comprises a control-vehicle group, a lesioned-vehicle group and one or two lesioned groups receiving the product under test. […]

[4] = Test for anti-depressive activity (forced swimming, duration of immobility); assay type: in vivo, Sprague Dawley rats; details: ip, 5 min; i.p. 24, 5 and half an hour before the test; immobility over 5 minutes; rat; read-out: AD50 (the source's name)
Method: 5) Test for anti-depressive activity
The tests are carried out on groups of 5 Sprague Dawley rats. The unaffected animals are placed for 15 minutes in a vertical cylinder of plexiglass (diameter: 18 cm, height: 40 cm) containing water at 25° C. at a height of 15 cm (initial swimming test). They are then dried for 15 minutes in a chamber heated to 32° C.; 24 hours later, they are replaced in the cylinder, filled with water, and the total duration of the periods of immobility is measured over 5 minutes.
The compound is administered i.p. successively 24, 5 and half an hour before the test. The first administration takes place immediately after the initial swimming test, just before the animals are replaced in their breeding box.
The averages of the treated groups are compared with those of the control group using Dunnett's test.

[5] = Anti-amnesic effect in a passive avoidance (electric shock treatment amnesia); assay type: in vivo; details: 2 mg/kg by oral route; rat
From the text: Anti-Amnesic Effect in a Passive Avoidance
Rats are placed individually in the lighted compartment of a box having two compartments, the other one being dark. They take refuge immediately in the dark compartment and upon their entry the rats receive an electric shock (1 mA/5 sec) from the grated floor. […] In the second group, the electric shock is immediately followed by the application of an amnesic electric shock treatment (60 mA, 0.6 ms, 0.6 s) (electric shock treatment control group). The third group is identical to the second, but the electric shock treatment is immediately followed by the administration of the compound under test (treated group). Twenty-four hours later, the animals are replaced in the lighted compartment of the box and the latency time of entry into the dark compartment is measured (up to 300 sec. maximum). For the controls, this time is close to 300 sec. The electric shock treatment controls on the other hand move into the dark compartment much more rapidly (amnesic effect).

[6] = Test for hypobar anoxemia in a mouse (survival time); assay type: in vivo; details: 10 mg/kg intraperitoneal, 60 minutes before the test; 600 mmHg depression; relative to control mice
Method: 3) Test for hypobar anoxemia in a mouse
This consists of measuring for a maximum duration of 3 minutes the survival time of mice placed in a 2 liter chamber in which a 600 mmHg depression is carried out. Mice deprived of food for 6 hours are used. The products are administered at a dose of 10 mg/kg by intraperitoneal route in a volume of 0.2 ml/10 g 60 minutes before the test.
The increase in survival time is noted, expressed as a percentage of the animals treated in relation to the control animals, submitted to the same conditions.

| RAL (relative affinity, in relation to phentolamine as reference product) [2] | Compound | change in vivo at 10 mg/kg [1] [%] | further results |
| --- | --- | --- | --- |
| – | COc1ccc2c3c4n(c2c1)[C@H](O)C[C@H]1CCCN(CC3)[C@H]41 (relative stereo) [Example 22, [(±) (14alpha, 16alpha)]-14,15-dihydro-11-methoxy-20,21-dinoreburnamenin-14-ol] | 18 | – |
| 110 | Clc1ccc2c3c4n(c2c1)C=C[C@H]1CCCN(CC3)[C@H]41 (relative stereo) [Example 2, [(±) (16alpha)]-11-chloro-20,21-dinoreburnamenine] | 43 | – |
| – | COc1ccc2c3c4n(c2c1)[C@@H](O)C[C@H]1CCCN(CC3)[C@H]41 (relative stereo) [Example 21, [(±) (14beta, 16alpha)]-14,15-dihydro-11-methoxy-20,21-dinoreburnamenin-14-ol] | 30 | – |
| 160 | Cc1ccc2c3c4n(c2c1)C=C[C@H]1CCCN(CC3)[C@H]41 (relative stereo) [Example 10, [(±) (16alpha)]-11-methyl-20,21-dinoreburnamenine] | 47 | reversal of the mnesic deficit caused by the septal cholinergic lesion (spontaneous alternation) [3]: reverses the mnesic deficit caused by the septal cholinergic lesion; ED50 [4]: 13 mg/kg; reversal of the effect of an electric shock treatment (passive avoidance) [5]: reverses the anti-amnesic effect of an electric shock treatment |
| – | COc1ccc2c(c1)c1c3n2C=C[C@H]2CCCN(CC1)[C@H]32 (relative stereo) [Example 29, [(±) (16alpha)]-10-methoxy-20,21-dinoreburnamenine] | 25 | – |
| – | O=[N+]([O-])c1cccc2c1c1c3n2C=C[C@H]2CCCN(CC1)[C@H]32 (relative stereo) [Example 41, [(±) (16alpha)]-9-nitro-20,21-dinoreburnamenine] | – | % of increase in survival time [6]: 13% |
| – | COc1ccc2c3c4n(c2c1)C=C[C@H]1CCCN(CC3)[C@H]41 (relative stereo) [Example 24, [(±) 16alpha]-11-methoxy-20,21-norburnamenine] | 35 | – |
| 55 | Clc1ccc2c(c1)c1c3n2C=C[C@H]2CCCN(CC1)[C@H]32 (relative stereo) [Example 5, [(±) 16alpha]-10-chloro-20,21-dinoreburnamenine] | 26 | – |
| 39 | Cc1ccc2c(c1)c1c3n2CC[C@H]2CCCN(CC1)[C@H]32 (relative stereo) [Example 18, [(±) (16alpha)]-14,15-dihydro-10-methyl-20,21-dinoreburnamenine] | – | – |
| – | Cc1ccc2c3c4n(c2c1)[C@H](O)C[C@H]1CCCN(CC3)[C@H]41 (relative stereo) [Example 8, [(±) (14alpha, 16alpha)]-14,15-dihydro-11-methyl-20,21-dinoreburnamenin-14-ol] | 37 | – |
| – | O=[N+]([O-])c1ccc2c3c4n(c2c1)C=C[C@H]1CCCN(CC3)[C@H]41 (relative stereo) [Example 39, [(±) (16alpha)]-11-nitro-20,21-dinoreburnamenine] | – | % of increase in survival time [6]: 14% |
| – | COc1ccc2c3c4n(c2c1)CC[C@H]1CCCN(CC3)[C@H]41 (relative stereo) [Example 25, [(±) (16alpha)]-14,15-dihydro-11-methoxy-20,21-dinoreburnamenine] | 20 | – |
| 35 | O[C@@H]1C[C@H]2CCCN3CCc4c(n1c1ccc(Cl)cc41)[C@H]23 (relative stereo) [Example 4, [(±) (14alpha, 16alpha)]-10-chloro-14,15-dihydro-20,21-dinoreburnamenin-14-ol] | – | – |
| 39 | Cc1ccc2c3c4n(c2c1)CC[C@H]1CCCN(CC3)[C@H]41 (relative stereo) [Example 12, [(±) (16alpha)]-14,15-dihydro-11-methyl-20,21-dinor-eburnamenine] | 18 | – |
| – | COc1ccc2c(c1)c1c3n2[C@H](O)C[C@H]2CCCN(CC1)[C@H]32 (relative stereo) [Example 28, [(±) (14alpha, 16alpha)]-14,15-dihydro-10-methoxy-20,21-dinoreburnamenin-14-ol] | 35 | – |
| – | O=[N+]([O-])c1cccc2c1c1c3n2C(O)CC2CCCN(CC1)C32 (racemic) [Example 40, [(±) (16alpha)]-9-nitro-14,15dihydro-20,21-dinoreburnamenin-14-ol] | – | % of increase in survival time [6]: 22% |
| 136 | Cc1ccc2c(c1)c1c3n2C=C[C@H]2CCCN(CC1)[C@H]32 (relative stereo) [Example 16, [(±) (16alpha)]-10-methyl-20,21-dinoreburnamenine] | 22 | – |
